Assay results: patent publication US10717716B2, “1,3,4-oxadiazole derivative compounds as histone deacetylase 6 inhibitor, and the pharmaceutical composition comprising the same” (Chong Kun Dang Pharmaceutical Corp., priority 2015, dated 2020)

Target: T1, human recombinant HDAC6 (Homo sapiens, UniProt Q9UBN7)
T1 construct: purchased Calbiochem 382180
T1 sequence (Q9UBN7 1-1215): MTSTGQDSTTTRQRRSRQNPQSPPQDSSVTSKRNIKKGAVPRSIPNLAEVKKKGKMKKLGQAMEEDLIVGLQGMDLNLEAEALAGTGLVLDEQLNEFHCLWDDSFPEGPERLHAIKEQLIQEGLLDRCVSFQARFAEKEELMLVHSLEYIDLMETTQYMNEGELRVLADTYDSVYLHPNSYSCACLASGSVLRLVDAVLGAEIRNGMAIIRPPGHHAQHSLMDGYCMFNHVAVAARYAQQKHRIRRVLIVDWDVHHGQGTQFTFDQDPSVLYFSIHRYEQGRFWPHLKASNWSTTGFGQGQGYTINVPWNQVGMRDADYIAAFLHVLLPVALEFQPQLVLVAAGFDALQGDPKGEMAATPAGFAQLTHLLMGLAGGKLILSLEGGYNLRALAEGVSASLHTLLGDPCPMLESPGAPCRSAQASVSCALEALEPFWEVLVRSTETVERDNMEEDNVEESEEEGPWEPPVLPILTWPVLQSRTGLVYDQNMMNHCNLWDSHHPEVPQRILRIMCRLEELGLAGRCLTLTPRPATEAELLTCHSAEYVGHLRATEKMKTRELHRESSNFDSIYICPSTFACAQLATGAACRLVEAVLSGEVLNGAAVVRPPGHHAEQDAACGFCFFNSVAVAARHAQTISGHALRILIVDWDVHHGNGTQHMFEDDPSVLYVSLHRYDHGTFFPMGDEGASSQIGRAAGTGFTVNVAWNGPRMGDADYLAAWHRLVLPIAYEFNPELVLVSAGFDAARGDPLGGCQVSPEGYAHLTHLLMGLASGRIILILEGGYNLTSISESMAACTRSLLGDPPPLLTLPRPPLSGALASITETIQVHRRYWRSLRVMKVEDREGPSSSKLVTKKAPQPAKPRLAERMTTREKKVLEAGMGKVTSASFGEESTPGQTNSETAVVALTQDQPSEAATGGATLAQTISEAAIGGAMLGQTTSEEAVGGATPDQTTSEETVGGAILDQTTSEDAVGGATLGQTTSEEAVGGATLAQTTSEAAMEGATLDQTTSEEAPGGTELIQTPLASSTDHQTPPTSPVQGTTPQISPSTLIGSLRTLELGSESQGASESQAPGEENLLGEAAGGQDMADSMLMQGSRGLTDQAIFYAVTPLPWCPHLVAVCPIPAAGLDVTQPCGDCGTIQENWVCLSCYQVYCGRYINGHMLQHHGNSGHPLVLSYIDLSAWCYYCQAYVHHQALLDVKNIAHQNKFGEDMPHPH
Test: HDAC6 enzyme activity inhibition assay (HDAC Fluorimetric Drug Discovery Kit)
Assay type: biochemical
Conditions: for HDAC6 selectivity (fold): HDAC6 over HDAC1; for IC50: human recombinant HDAC6, same protocol as HDAC1, read-out: HDAC6
Experimental: In order to examine the HDAC6 selectivity of the compounds of formula I of the present invention by HDAC1 and HDAC6 enzymatic activity inhibition assays, an experiment was performed using a conventional substance as a control.
HDAC enzyme activity was measured using a HDAC Fluorimetric Drug Discovery Kit (BML-AK511, 516, Enzo Life Science). For the HDAC1 enzyme activity test, human recombinant HDAC1 (BML-SE456) was used as an enzyme source, and Fluor de Lys®-“SIRT1 (BNL-KI177) was used as a substrate. A 5-fold dilution of the compound was seeded into a 96-well plate, and then 0.3 μg of the enzyme and 10 μM of the substrate were added to each well of the plate and allowed to react at 30° C. for 60 minutes. Then, Fluor de Lys®-Developer II (BML-KI176) was added thereto and allowed to react for 30 minutes, after which the fluorescence value (Ex 360, Em 460) was measured using a multi-plate reader (Flexstation 3, Molecular Device). The HDAC6 enzyme was tested using human recombinant HDAC6 (382180) (Calbiochem) according to the same protocol as the HDAC1 enzyme activity test method. Based on the resulting values, each IC5, value was calculated using GraphPad Prism4.0 program.

Structure (SMILES): Cc1ccccc1N(Cc1ccc(-c2nnc(C(F)F)o2)cc1F)C(=O)N1CCN(C)CC1 [Compound 21469, N-(4-(5-(difluoromethyl)-1,3,4-oxadiazol-2-yl)-2-fluorobenzyl)-4-methyl-N-(o-tolyl)piperazine-1-carboxamide]
- HDAC6 selectivity (fold): 244 fold
- IC50: 41 nM

Structure (SMILES): CCN1CCN(C(=O)N(Cc2ccc(-c3nnc(C(F)F)o3)cn2)c2cccc(F)c2)CC1 [Compound 21885, N-((5-(5-(Difluoromethyl)-1,3,4-oxadiazol-2-yl)pyridin-2-yl)methyl)-4-ethyl-N-(3-fluorophenyl)piperazine-1-carboxamide]
- HDAC6 selectivity (fold): 555 fold
- IC50: 18 nM

Structure (SMILES): C[C@@H]1CN(Cc2ccc(N(Cc3ccc(-c4nnc(C(F)F)o4)cc3F)C(=O)N3CCS(=O)(=O)CC3)cc2)C[C@H](C)N1Cc1ccccc1 [Compound 21926]
- HDAC6 selectivity (fold): 28 fold
- IC50: 356 nM

Structure (SMILES): CN1CCN(c2cccc(N(Cc3ccc(-c4nnc(C(F)F)o4)cn3)C(=O)N3CCS(=O)(=O)CC3)c2)CC1 [Compound 21627, N-((5-(5-(difluoromethyl)-1,3,4-oxadiazol-2-yl)pyridin-2-yl)methyl)-N-(3-(4-methylpiperazin-1-yl)phenyl)thiomorpholine-4-carboxamide 1,1-dioxide]
- HDAC6 selectivity (fold): 22 fold
- IC50: 457 nM

Structure (SMILES): CCN1CCN(C(=O)N(Cc2ccc(-c3nnc(C(F)F)o3)cc2F)c2cccc(Cl)c2F)CC1 [Compound 21646, N-(3-chloro-2-fluorophenyl)-N-(4-(5-(difluoromethyl)-1,3,4-oxadiazol-2-yl)-2-fluorobenzyl)-4-ethylpiperazine-1-carboxamide]
- HDAC6 selectivity (fold): 317 fold
- IC50: 32 nM

Structure (SMILES): COc1ccc(N(Cc2ccc(-c3nnc(C(F)F)o3)cc2F)C(=O)N2CCS(=O)(=O)CC2)cc1 [Compound 21478, N-(4-(5-(difluoromethyl)-1,3,4-oxadiazol-2-yl)-2-fluorobenzyl)-N-(4-methoxyphenyl)thiomorpholine-4-carboxamide 1,1-dioxide]
- HDAC6 selectivity (fold): 270 fold
- IC50: 37 nM

Structure (SMILES): COc1ccc(N(Cc2ccc(-c3nnc(C(F)F)o3)cn2)C(=O)N2CCN(C)CC2)cc1 [Compound 21623, N-((5-(5-(difluoromethyl)-1,3,4-oxadiazol-2-yl)pyridin-2-yl)methyl)-N-(4-methoxyphenyl)-4-methylpiperazine-1-carboxamide]
- HDAC6 selectivity (fold): 290 fold
- IC50: 35 nM

Structure (SMILES): CN1CCN(C(=O)N(Cc2ccc(-c3nnc(C(F)F)o3)cc2F)c2ccc(-c3ccccc3)cc2)CC1 [Compound 21542, N-([1,1′-biphenyl]-4-yl)-N-(4-(5-(difluoromethyl)-1,3,4-oxadiazol-2-yl)-2-fluorobenzyl)-4-methylpiperazine-1-carboxamide]
- HDAC6 selectivity (fold): 164 fold
- IC50: 61 nM

Structure (SMILES): O=C(N1CCS(=O)(=O)CC1)N(Cc1ccc(-c2nnc(C(F)F)o2)cc1)c1ccccc1 [Compound 21360, N-(4-(5-(difluoromethyl)-1,3,4-oxadiazol-2-yl)benzyl)-N-phenylthiomorpholine-4-carboxamide 1,1-dioxide]
- HDAC6 selectivity (fold): 282 fold
- IC50: 35.4 nM

Structure (SMILES): CN1CCN(C(=O)N(Cc2ccc(-c3nnc(C(F)F)o3)cc2F)c2cccc(-c3cccnc3)c2)CC1 [Compound 21536, N-(4-(5-(difluoromethyl)-1,3,4-oxadiazol-2-yl)-2-fluorobenzyl)-4-methyl-N-(3-(pyridin-3-yl)phenyl)piperazine-1-carboxamide]
- HDAC6 selectivity (fold): 556 fold
- IC50: 18 nM

Structure (SMILES): O=C(C1CC1)N1CCN(CCNC(=O)N(Cc2ccc(-c3nnc(C(F)F)o3)cc2F)c2ccccc2)CC1 [Compound 22001, 3-(2-(4-(Cyclopropanecarbonyl)piperazin-1-yl)ethyl)-1-(4-(5-(difluoromethyl)-1,3,4-oxadiazol-2-yl)-2-fluorobenzyl)-1-phenylurea]
- HDAC6 selectivity (fold): 116 fold
- IC50: 87 nM

Structure (SMILES): O=C(N1CCS(=O)(=O)CC1)N(Cc1ccc(-c2nnc(C(F)F)o2)cc1)c1ccc(-c2ccc3c(c2)OCO3)cc1 [Compound 21494, N-(4-(benzo[d][1,3]dioxol-5-yl)phenyl)-N-(4-(5-(difluoromethyl)-1,3,4-oxadiazol-2-yl)benzyl)thiomorpholine-4-carboxamide 1,1-dioxide]
- HDAC6 selectivity (fold): 89 fold
- IC50: 112 nM

Structure (SMILES): O=C(N1CCS(=O)(=O)CC1)N(Cc1ccc(-c2nnc(C(F)F)o2)cc1F)c1ccc2c(c1)CCC2 [Compound 21797, N-(4-(5-(Difluoromethyl)-1,3,4-oxadiazol-2-yl)-2-fluorobenzyl)-N-(2,3-dihydro-1H-inden-5-yl)thiomorpholine-4-carboxamide 1,1-dioxide]
- HDAC6 selectivity (fold): 37 fold
- IC50: 268 nM

Structure (SMILES): O=C(NCCN1CCC[C@H]1C(F)(F)F)N(Cc1ccc(-c2nnc(C(F)F)o2)cc1F)c1ccccc1 [Compound 21988, (S)-1-(4-(5-(difluoromethyl)-1,3,4-oxadiazol-2-yl)-2-fluorobenzyl)-1-phenyl-3-(2-(2-(trifluoromethyl)pyrrolidin-1-yl)ethyl)urea]
- HDAC6 selectivity (fold): 33 fold
- IC50: 301 nM

Structure (SMILES): CC(C)N1CCN(C(=O)N(Cc2ccc(-c3nnc(C(F)(F)F)o3)cc2)c2ccccc2)CC1 [Compound 21347, 4-Isopropyl-N-phenyl-N-(4-(5-(trifluoromethyl)-1,3,4-oxadiazol-2-yl)benzyl)piperazine-1-carboxamide]
- HDAC6 selectivity (fold): 55 fold
- IC50: 183 nM

Structure (SMILES): CC(=O)N1[C@H](C)CN(C(=O)N(Cc2ccc(-c3nnc(C(F)(F)F)o3)cc2)c2ccccc2)C[C@@H]1C [Compound 21387, (3R,5S)-4-Acetyl-3,5-dimethyl-N-phenyl-N-(4-(5-(trifluoromethyl)-1,3,4-oxadiazol-2-yl)benzyl)piperazine-1-carboxamide]
- HDAC6 selectivity (fold): 41 fold
- IC50: 241 nM

Structure (SMILES): O=C(N1CCOCC1)N(CCc1ccc(-c2nnc(C(F)(F)F)o2)cc1)c1ccccc1 [Compound 21348, N-phenyl-N-(4-(5-(trifluoromethyl)-1,3,4-oxadiazol-2-yl)phenethyl)morpholine-4-carboxamide]
- HDAC6 selectivity (fold): 1 fold
- IC50: 8360 nM

Structure (SMILES): CN(C)[C@@H]1CCN(Cc2ccc(N(Cc3ccc(-c4nnc(C(F)F)o4)cc3F)C(=O)N3CCS(=O)(=O)CC3)cc2)C1 [Compound 21917, (R)—N-(4-(5-(difluoromethyl)-1,3,4-oxadiazol-2-yl)-2-fluorobenzyl)-N-(4-((3-(dimethylamino)pyrrolidin-1-yl)methyl)phenyl)thiomorpholine-4-carboxamide 1,1-dioxide]
- HDAC6 selectivity (fold): 151 fold
- IC50: 66 nM

Structure (SMILES): C[C@@H]1CN(C(=O)N(Cc2ccc(-c3nnc(C(F)(F)F)o3)cc2)c2ccccc2)C[C@H](C)N1Cc1ccccc1 [Compound 21376, (3S,5R)-4-Benzyl-3,5-dimethyl-N-phenyl-N-(4-(5-(trifluoromethyl)-1,3,4-oxadiazol-2-yl)benzyl)piperazine-1-carboxamide]
- HDAC6 selectivity (fold): 22 fold
- IC50: 448 nM

Structure (SMILES): CN1CCCN(C(=O)N(Cc2ccc(-c3nnc(C(F)(F)F)o3)cc2)c2ccccc2)CC1 [Compound 21379, 4-Methyl-N-phenyl-N-(4-(5-(trifluoromethyl)-1,3,4-oxadiazol-2-yl)benzyl)-1,4-diazepane-1-carboxamide]
- HDAC6 selectivity (fold): 132 fold
- IC50: 76 nM
